Measured values reported in US10479780B2, “Aminopyrazole derivatives” (Chugai Seiyaku Kabushiki Kaisha, priority 2015, dated 2019).
Read-outs that look alike come from different tables or passages of the source.

Legend:
Type in all cases: biochemical
human Lck enzyme = target: T1, human Lck enzyme (Homo sapiens, UniProt P06239); assay: Lck enzyme inhibitory activity (time-resolved fluorometry, biotinylated peptide phosphorylation); conditions: read-out: LCK_IC50
T1 construct: purchased Carna Biosciences, Inc. 08-170
Method in brief: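 Readout pairs a europium cryptate-labelled anti-phosphotyrosine antibody with XL665-streptavidin, measured by time-resolved fluorescence. IC50 derived from percent inhibition against untreated controls.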

human Src enzyme = target: T2, human Src enzyme (Homo sapiens, UniProt P12931); assay: Src enzyme inhibitory activity (time-resolved fluorometry, biotinylated peptide phosphorylation); conditions: read-out: SRC_IC50
T2 construct: purchased Carna Biosciences, Inc. 08-173
Method in brief: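 Compounds were tested for blocking tyrosine phosphorylation of a biotinylated peptide substrate by recombinant human Src. Phosphorylated product was quantified by time-resolved fluorometry using europium cryptate and XL665 conjugates, and IC50 was calculated against the compound-free control.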

human Yes1 enzyme = target: T3, human Yes1 enzyme (Homo sapiens, UniProt P07947); assay: Yes1 enzyme inhibitory activity (time-resolved fluorometry, biotinylated peptide phosphorylation); conditions: read-out: YES_IC50
T3 construct: made in house
Method in brief: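 Inhibition was expressed against a compound-free control to give IC50, using TR-FRET read-out (Eu-cryptate anti-pTyr antibody, streptavidin-XL665).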

[1] = biotinylated peptide phosphorylation

T3 sequence (P07947 whole entry): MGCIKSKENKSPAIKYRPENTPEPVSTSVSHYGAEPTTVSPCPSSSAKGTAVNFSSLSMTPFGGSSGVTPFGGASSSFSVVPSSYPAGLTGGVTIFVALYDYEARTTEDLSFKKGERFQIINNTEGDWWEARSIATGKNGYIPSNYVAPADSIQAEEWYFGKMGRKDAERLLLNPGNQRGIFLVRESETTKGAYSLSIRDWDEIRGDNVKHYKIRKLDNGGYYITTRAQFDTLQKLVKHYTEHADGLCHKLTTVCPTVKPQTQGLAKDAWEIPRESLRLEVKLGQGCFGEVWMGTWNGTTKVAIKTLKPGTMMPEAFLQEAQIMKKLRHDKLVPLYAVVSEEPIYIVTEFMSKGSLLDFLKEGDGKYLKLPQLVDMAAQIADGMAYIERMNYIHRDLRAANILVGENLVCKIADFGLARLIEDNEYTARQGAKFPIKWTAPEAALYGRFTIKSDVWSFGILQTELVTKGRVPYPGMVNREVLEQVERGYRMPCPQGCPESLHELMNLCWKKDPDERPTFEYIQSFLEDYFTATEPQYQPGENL
T2 sequence (P12931 whole entry): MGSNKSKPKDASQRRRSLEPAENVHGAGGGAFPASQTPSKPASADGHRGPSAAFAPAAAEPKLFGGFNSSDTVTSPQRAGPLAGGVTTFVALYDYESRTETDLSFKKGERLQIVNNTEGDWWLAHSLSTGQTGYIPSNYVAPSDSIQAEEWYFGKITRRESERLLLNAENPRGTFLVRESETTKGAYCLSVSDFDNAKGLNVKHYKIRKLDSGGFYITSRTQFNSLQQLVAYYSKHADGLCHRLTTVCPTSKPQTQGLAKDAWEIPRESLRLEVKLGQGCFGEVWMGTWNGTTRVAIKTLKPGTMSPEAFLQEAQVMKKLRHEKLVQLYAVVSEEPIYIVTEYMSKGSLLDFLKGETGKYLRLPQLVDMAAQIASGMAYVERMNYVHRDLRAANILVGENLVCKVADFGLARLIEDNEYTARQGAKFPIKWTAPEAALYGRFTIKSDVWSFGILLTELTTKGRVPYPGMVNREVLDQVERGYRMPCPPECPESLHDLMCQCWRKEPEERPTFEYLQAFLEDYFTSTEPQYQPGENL
T1 sequence (P06239 whole entry): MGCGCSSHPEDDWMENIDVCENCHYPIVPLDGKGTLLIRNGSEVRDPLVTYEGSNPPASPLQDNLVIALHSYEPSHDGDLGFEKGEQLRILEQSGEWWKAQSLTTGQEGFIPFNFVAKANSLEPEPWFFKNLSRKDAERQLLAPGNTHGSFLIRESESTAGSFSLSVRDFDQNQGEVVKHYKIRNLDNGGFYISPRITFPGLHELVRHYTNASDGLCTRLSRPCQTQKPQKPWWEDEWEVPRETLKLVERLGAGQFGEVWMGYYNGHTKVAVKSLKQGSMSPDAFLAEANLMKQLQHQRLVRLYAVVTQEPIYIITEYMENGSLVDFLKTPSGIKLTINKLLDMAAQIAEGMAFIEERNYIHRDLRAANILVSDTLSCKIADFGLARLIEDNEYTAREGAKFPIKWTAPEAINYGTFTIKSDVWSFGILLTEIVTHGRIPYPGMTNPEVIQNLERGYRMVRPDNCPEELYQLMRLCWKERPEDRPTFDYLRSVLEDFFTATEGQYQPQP

SMILES	IC50 (human Lck enzyme)	IC50 (human Src enzyme)	IC50 (human Yes1 enzyme)	IC50 (human Lck enzyme; [1])	IC50 (human Src enzyme; [1])	IC50 (human Yes1 enzyme; [1])
Cc1cc(Oc2c(F)cccc2F)ncc1-n1ncc(C(=O)c2cc3cc(OC4CCN(C5CC5)CC4)c(Br)cc3[nH]2)c1N [Example 5-1-224, [5-amino-1-[6-(2,6-difluorophenoxy)-4-methylpyridin-3-yl]pyrazol-4-yl]-[6-bromo-5-(1-cyclopropylpiperidin-4-yl)oxy-1H-indol-2-yl] methanone]	6.3 nM	17 nM	0.57 nM	–	–	–
Cc1cc(-n2ncc(C(=O)c3cc4cc(OC5CCN(C(C)C)CC5)c(N5CCC(N6CCOCC6)CC5)cc4[nH]3)c2N)ccc1Oc1ccccc1F [Example 5-1-182, [5-amino-1-[4-(2-fluorophenoxy)-3-methylphenyl]pyrazol-4-yl]-[6-(4-morpholin-4-ylpiperidin-1-yl)-5-(1-propan-2-ylpiperidin-4-yl)oxy-1H-indol-2-yl]methanone]	2.7 nM	24 nM	0.17 nM	–	–	–
CC(C)N1CCC(c2cc3cc(C(=O)c4cnn(-c5ccc(Oc6cccc(F)c6)cc5F)c4N)[nH]c3cc2F)CC1 [Example 5-1-002, [5-amino-1-[2-fluoro-4-(3-fluorophenoxy)phenyl]pyrazol-4-yl]-[6-fluoro-5-(1-propan-2-ylpiperidin-4-yl)-1H-indol-2-yl]methanone]	2.2 nM	6.1 nM	0.87 nM	–	–	–
Cc1cc(Oc2ccccc2F)cc(F)c1-n1ncc(C(=O)c2cc3cc(OCC(F)F)c(N4CCOC4=O)cc3[nH]2)c1N [Example 4-25-017, 3-[2-[5-amino-1-[2-fluoro-4-(2-fluorophenoxy)-6-methylphenyl]pyrazole-4-carbonyl]-5-(2,2-difluoroethoxy)-1H-indol-6-yl]-1,3-oxazolidin-2-one]	–	–	–	2.3 nM	6.4 nM	1.3 nM
Nc1c(C(=O)c2cc3cc(F)c(NS(=O)(=O)C4CC4)cc3[nH]2)cnn1-c1c(Cl)cc(Oc2cccc(F)c2F)cc1Cl [Example 5-1-026, N-[2-[5-amino-1-[2,6-dichloro-4-(2,3-difluorophenoxy)phenyl]pyrazole-4-carbonyl]-5-fluoro-1H-indol-6-yl] cyclopropanesulfonamide]	390 nM	660 nM	64 nM	–	–	–
Cc1cc(-n2ncc(C(=O)c3cc4cc(OC5CCN(C(C)C)CC5)c(Br)cc4[nH]3)c2N)ccc1Oc1cccc(F)c1 [Example 5-1-210, [5-amino-1-[4-(3-fluorophenoxy)-3-methylphenyl]pyrazol-4-yl]-[6-bromo-5-(1-propan-2-ylpiperidin-4-yl)oxy-1H-indol-2-yl] methanone]	120 nM	510 nM	6.5 nM	–	–	–
Cc1cc2cc(C(=O)c3cnn(-c4cc(F)c(Oc5ccccc5F)cc4C)c3N)[nH]c2cc1NS(C)(=O)=O [Example 5-1-199, N-[2-[5-amino-1-[5-fluoro-4-(2-fluorophenoxy)-2-methylphenyl]pyrazole-4-carbonyl]-5-methyl-1H-indol-6-yl]methanesulfonamide]	37 nM	78 nM	2.7 nM	–	–	–
Cc1cc2cc(C(=O)c3cnn(-c4cnc(Oc5ccccc5F)cc4C)c3N)[nH]c2cc1NS(=O)(=O)c1cccc(F)c1 [Example 5-1-500, N-[2-[5-amino-1-[6-(2-fluorophenoxy)-4-methylpyridin-3-yl]pyrazole-4-carbonyl]-5-methyl-1H-indol-6-yl]-3-fluorobenzenesulfonamide]	–	–	–	200 nM	750 nM	5.7 nM
Cc1cc(-n2ncc(C(=O)c3cc4cc(OC5CCN(C6CCC6)CC5)c(NS(C)(=O)=O)cc4[nH]3)c2N)ccc1Oc1ccccc1F [Example 5-1-231, N-[2-[5-amino-1-[4-(2-fluorophenoxy)-3-methylphenyl]pyrazole-4-carbonyl]-5-(1-cyclobutylpiperidin-4-yl)oxy-1H-indol-6-yl] methanesulfonamide]	72 nM	610 nM	1.7 nM	–	–	–
Cc1cc(Oc2ccc(F)cc2)ncc1-n1ncc(C(=O)c2cc3cc(Cl)c(NS(C)(=O)=O)cc3[nH]2)c1N [Example 4-2-092, N-[2-[5-amino-1-[6-(4-fluorophenoxy)-4-methylpyridin-3-yl]pyrazole-4-carbonyl]-5-chloro-1H-indol-6-yl]methanesulfonamide]	–	–	–	78 nM	270 nM	19 nM
Cc1cc2cc(C(=O)c3cnn(-c4ccc(Oc5ccccc5F)cc4C)c3N)[nH]c2cc1N1C(=O)NC2(CCN(C3COC3)CC2)C1=O [Example 5-1-391, 3-(2-(5-amino-1-(4-(2-fluorophenoxy)-2-methylphenyl)-1H-pyrazole-4-carbonyl)-5-methyl-1H-indol-6-yl)-8-(oxetan-3-yl)-1,3,8-triazaspiro[4.5]decane-2,4-dione]	5.5 nM	11 nM	1.3 nM	–	–	–
Cc1cc(-n2ncc(C(=O)c3cc4cc(F)c(C5CCN(C(C)C)CC5)cc4[nH]3)c2N)ccc1Oc1ccccc1F [Example 4-2-014, [5-amino-1-[4-(2-fluorophenoxy)-3-methylphenyl]pyrazol-4-yl]-[5-fluoro-6-(1-propan-2-ylpiperidin-4-yl)-1H-indol-2-yl]methanone]	–	–	–	62 nM	510 nM	18 nM
Cc1cc(Oc2c(F)cccc2F)ncc1-n1ncc(C(=O)c2cc3cc(F)c(-n4c(C)cc(=O)[nH]c4=O)cc3[nH]2)c1N [Example 5-1-101, 1-[2-[5-amino-1-[6-(2,6-difluorophenoxy)-4-methylpyridin-3-yl]pyrazole-4-carbonyl]-5-fluoro-1H-indol-6-yl]-6-methylpyrimidine-2,4-dione]	1.1 nM	25 nM	1.9 nM	–	–	–
Cc1cc(Oc2ccccc2F)ccc1-n1ncc(C(=O)c2cc3cc(O)c(NS(C)(=O)=O)cc3[nH]2)c1N [Example 5-1-061, N-[2-[5-amino-1-[4-(2-fluorophenoxy)-2-methylphenyl]pyrazole-4-carbonyl]-5-hydroxy-1H-indol-6-yl]methanesulfonamide]	7 nM	12 nM	0.96 nM	–	–	–
Cc1cc2cc(C(=O)c3cnn(-c4c(C)cc(Oc5cccc(F)c5F)cc4F)c3N)[nH]c2cc1NS(=O)(=O)CCCF [Example 4-2-071, N-[2-[5-amino-1-[4-(2,3-difluorophenoxy)-2-fluoro-6-methylphenyl]pyrazole-4-carbonyl]-5-methyl-1H-indol-6-yl]-3-fluoropropane-1-sulfonamide]	–	–	–	78 nM	160 nM	12 nM
Cc1cc(C#N)cc(S(=O)(=O)Nc2cc3[nH]c(C(=O)c4cnn(-c5cnc(Oc6ccccc6F)cc5C)c4N)cc3cc2C)n1 [Example 5-1-481, N-[2-[5-amino-1-[6-(2-fluorophenoxy)-4-methylpyridin-3-yl]pyrazole-4-carbonyl]-5-methyl-1H-indol-6-yl]-4-cyano-6-methylpyridine-2-sulfonamide]	–	–	–	110 nM	450 nM	5.4 nM
Cc1cc(Oc2c(F)cccc2F)ncc1-n1ncc(C(=O)c2cc3cc(C4CC4)c(NS(=O)(=O)CCCF)cc3[nH]2)c1N [Example 5-1-427, N-[2-[5-amino-1-[6-(2,6-difluorophenoxy)-4-methylpyridin-3-yl]pyrazole-4-carbonyl]-5-cyclopropyl-1H-indol-6-yl]-3-fluoropropane-1-sulfonamide]	–	–	–	43 nM	170 nM	3.8 nM
Cc1cc(Oc2ccccc2F)ccc1-n1ncc(C(=O)c2cc3cc(OCC(F)F)c(NS(=O)(=O)C4CCOCC4)cc3[nH]2)c1N [Example 5-1-325, N-[2-[5-amino-1-[4-(2-fluorophenoxy)-2-methylphenyl]pyrazole-4-carbonyl]-5-(2,2-difluoroethoxy)-1H-indol-6-yl]oxane-4-sulfonamide]	18 nM	32 nM	1.6 nM	–	–	–
Cc1cc(Oc2ccccc2F)ccc1-n1ncc(C(=O)c2cc3cc(OCC(F)F)c(N4CCC(O)CC4)cc3[nH]2)c1N [Example 5-1-087, [5-amino-1-[4-(2-fluorophenoxy)-2-methylphenyl]pyrazol-4-yl]-[5-(2,2-difluoroethoxy)-6-(4-hydroxypiperidin-1-yl)-1H-indol-2-yl]methanone]	3.9 nM	13 nM	0.77 nM	–	–	–
Cc1cc(Oc2ccccc2F)ccc1-n1ncc(C(=O)c2cc3cc(OCC(F)F)c(N4CC(C)(C)NS4(=O)=O)cc3[nH]2)c1N [Example 5-1-322, [5-amino-1-[4-(2-fluorophenoxy)-2-methylphenyl]pyrazol-4-yl]-[5-(2,2-difluoroethoxy)-6-(4,4-dimethyl-1,1-dioxo-1,2,5-thiadiazolidin-2-yl)-1H-indol-2-yl]methanone]	22 nM	70 nM	4.1 nM	–	–	–
Cc1cc(Oc2ccccc2F)ccc1-n1ncc(C(=O)c2cc3cc(F)c(N4C(=O)NC(C)(C)C4=O)cc3[nH]2)c1N [Example 5-1-127, 3-[2-[5-amino-1-[4-(2-fluorophenoxy)-2-methylphenyl]pyrazole-4-carbonyl]-5-fluoro-1H-indol-6-yl]-5,5-dimethylimidazolidine-2,4-dione]	4 nM	39 nM	0.67 nM	–	–	–
Cc1cnc(F)c(S(=O)(=O)Nc2cc3[nH]c(C(=O)c4cnn(-c5ccc(Oc6ccccc6F)cc5C)c4N)cc3cc2F)c1 [Example 5-1-522, N-[2-[5-amino-1-[4-(2-fluorophenoxy)-2-methylphenyl]pyrazole-4-carbonyl]-5-fluoro-1H-indol-6-yl]-2-fluoro-5-methylpyridine-3-sulfonamide]	–	–	–	120 nM	250 nM	1.8 nM
